# Results as given in ChEMBL document CHEMBL3507680, “University of Dundee, Gates Library screen for HepG2 cell viability”.
# Assay: Human HepG2 cell viability assay in 384 well format
# Format: toxicity, cell-based
# Design: dose 125 nL, time 70.5 hour; cytotoxicity at 70.5 h: concentration not given beside the values
# Details: HepG2 cells, read-out: Inhibition
row,SMILES,cytotoxicity at 70.5 h
1,COCCN1CCN(c2cc(OC)ncn2)Cc2ccc(C)nc21,-10.4%
2,O=C(CCc1ccccc1Br)NS(=O)(=O)c1ccc2c(c1)OCCO2,-1.54%
3,CC(C)N(C)S(=O)(=O)N1CCN(Cc2ccco2)CC1,-5.12%
4,CS(=O)(=O)c1cc(Cl)cnc1C1CCCN(C(=O)C2CCOCC2)C1 (stereo not drawn),-7.95%
5,CCCc1nc(N[C@H]2COC[C@@H]2N2CCCCC2)c2cnn(C)c2n1,-13.5%
6,O=C(CCc1nc(Cl)n[nH]1)N[C@H]1CC[C@H]1NC1Cc2ccccc2C1,-9.72%
7,Cn1ccnc1C1CCN(S(=O)(=O)c2ccc3[nH]c(=O)[nH]c3c2)CC1,15.5%
8,CNC(=O)N1CC[C@@H]2CN(CCc3cccc(OC)c3)S(=O)(=O)[C@@H]2CC1,-0.824%
9,O=C1CCC2(CCCN(C(=O)Cc3ccccc3)C2)N1 (stereo not drawn),5.57%
10,CCn1ccnc1CN1CCCN(C(=O)Cc2csc(C)n2)CC1,-5.98%
11,Cc1cccc(N2CCC3(CCCN3Cc3cn(C)nc3C)CC2)n1,-9.08%
12,COc1ccccc1CN1CCc2c(nc(-c3ccccn3)[nH]c2=O)C1,12.7%
13,COC(=O)c1sccc1S(=O)(=O)N1CCC(Oc2cnccn2)CC1,-7.44%
14,COC(=O)CN(Cc1ccccc1C)C(=O)C1CCC1,8.03%
15,O=C(C1CCCO1)N1CCCn2c(nnc2Cn2cccc2)C1 (stereo not drawn),-11.4%
16,CN1CCN(CC2CC2)C(=O)C12CCN(C(=O)c1cnccn1)CC2,-3.74%
17,COCCOC1CCN(C(=O)NCc2cc(C)oc2C)CC1,-8.46%
18,Cc1cccc(S(=O)(=O)N2Cc3c(CN(C)C)nn(C)c3C2)c1,2.96%
19,N#Cc1ccc(CN2CC3(CCCCN3c3cccnc3)CC2=O)cc1 (stereo not drawn),1%
20,Cc1nc2cc(F)cc(C(=O)N3CCN(CC(C)O)CC3)c2nc1C (stereo not drawn),-9.3%
21,CCc1ccc(CN2Cc3nccn3CC(Cn3cncn3)C2)o1 (stereo not drawn),2.9%
22,Cc1cc(C(=O)N2CCc3c(CN(C)C)nn(C)c3C2)[nH]n1,-12.8%

row,SMILES,cytotoxicity at 70.5 h
1,CC(C)c1ccc(C(C)N2CCCN(C(N)=O)CC2)cc1 (stereo not drawn),-5.71%
2,Cc1ccc(CN2C[C@H]3C(=O)N(CC4CC4)C[C@@]3(C(=O)O)C2)c(F)c1F,9.58%
3,O=C(c1ccc(C2CCCN2)s1)N1CCN2CCC1CC2 (stereo not drawn),-5.88%
4,COc1ccc2nnc(CCCC(=O)NCc3ccccc3F)n2n1,21.9%
5,CN(C)CCOCC1CN(Cc2cccc(F)c2)Cc2nccn2C1 (stereo not drawn),-4.81%
6,CN(C)CCN(C)C(=O)c1cnc2c(c1)nc(-c1ccccc1Cl)n2C,-5.91%
7,O=C(c1ccnnc1)N1C[C@H]2CN(Cc3cccc(F)c3)C(=O)[C@H]2C1,-13.7%
8,CNc1nc(C)c(C(=O)N2CCC(C(O)Cc3ccccc3)CC2)s1 (stereo not drawn),-11.8%
9,COCCCNC(=O)c1ccccc1S(C)(=O)=O,-13.3%
10,CS(=O)(=O)c1ccc(C(=O)N2CCCC(n3cccn3)C2)cc1 (stereo not drawn),0.802%
11,CCc1cnc(CN2CCC(O)(c3cc(OC)cc(OC)c3)CC2)o1,-12.2%
12,O=C1CC(NCc2cccc(O)c2)CN1CCc1cccc(Cl)c1 (stereo not drawn),14.8%
13,CCc1nn(C)c(Cl)c1CN1CCN(c2ccc(Cl)nn2)CC1,13.1%
14,CC(C)Oc1cccc(C(=O)Nc2nncs2)c1,-11.6%
15,CCCS(=O)(=O)N1CCC2(CC1)CC(=O)N(CCCc1ccccc1)C2,23.4%
16,CC(C)Cc1nc(CN(C)c2cc(C(C)C)nc3ccnn23)no1,-10.6%
17,CCS(=O)(=O)NCCCNc1cc(N2CCCC2CO)ncn1 (stereo not drawn),-4.09%
18,Cc1nn(C)c(N(C)C)c1CNCc1ccnc(N2CCCCC2)c1,-2.08%
19,Cc1ccccc1CC(=O)N1C[C@@H]2COC[C@]2(CN(C)C)C1,-6.68%
20,CN(C)C(=O)CN1C[C@H]2CCN(c3ncccn3)CC[C@H]2S1(=O)=O,-0.338%
21,CNc1ncc(-c2ccc(NC(=O)[C@@H]3CCCCN3)cc2)cn1,-1.05%
